Laboratory results taken from patent publication US9669005B2, “Use of naringenin in preparing drugs for preventing and/or treatment abdominal aortic aneurysm” (priority 2013, dated 2017).

Tests used:
Format in all cases: in vivo
[1] = system: macrophages and leukocytes in adventitia in vascular walls; assay: Immunohistochemical staining of inflammatory cells (Mac3, CD45) in vascular walls, CaPO4 model; details: CaPO4 daubed mice, FIG. 3A
Source text: In the onset of abdominal aortic aneurysm, inflammatory cell infiltration of vascular walls is a common feature. We used histochemical staining to identify inflammatory cells infiltrated in vascular walls. Mac3 is the result of immumohistochemical staining on anti-Mac3 specific antibody, representative of macrophage, and CD45 is the result of immumohistochemical staining on anti-CD45 specific antibody, representative of leukocyte.

matrix metalloproteinase = assay: In situ zymography, CaPO4 model; details: CaPO4 daubed mice; FIG. 4A
Method: After the aortas of mice were perfused with PBS, fresh tissue was directly embedded with OCT, put in liquid nitrogen for freezing, and then continuously sliced. Firstly, washing was performed with PBS for 3 min, thrice. A fluorescently labeled DQ-gelation-FITC substrate (Sigma-Aldrich, St. Louis, Mo.) was incubated 1 hour at 37° C. Under normal circumstances, fluorescent label for the substrate was packaged, so there is no fluorescence; after activated gelatinase degraded gelatin, green fluorescent label would be exposed. After the section was incubated, washing was performed with PBS for 3 min, thrice, and then the section was sealed. Immunofluorescence confocal microscopy was used to irradiate. The stronger fluorescence was, which means, the stronger activity of matrix metalloproteinase was.

MMP-2 and NMP-9 = assay: Gelatin zymography, CaPO4 model; details: CaPO4 daubed mice; infrarenal abdominal aorta culture supernatant; FIG. 4B
Method: After extravasated blood in fresh removed blood vessels of infrarenal site in abdominal aortas of mice were cleared, and fat and connective tissues were removed, and blood vessels were cut into 1 cm ring, and put into 24-well plate. Blood vessels were cultured for 24 hours using 0.5 ml serum-free medium with high glucose. After the cultured supernatant protein was quantified, mercaptoethanol-free protein sample loading buffer was added, cryopreserved at −80° C. Water was used to prepare gelatin (Sigma-Aldrich, St. Louis, Mo.) into a concentration of 10 mg/ml, which was added to separation gel of protein electrophoresis according to the proportion of 1:10, causing the final concentration of gelatin as 1 mg/ml. Electrophoresis was performed in a voltage of 80V at 4° C. The gel was put into 0.25% Trixon-100 solution, and washing was performed twice in 30 minutes. […] Incubated gel was put into Coomassie brilliant blue to stain for 1-2 hours at room temperature, washed for 30 minutes with a solution having 30% methanol and 10% glacial acetic acid, a solution having 20% methanol and 10% glacial acetic acid, and a solution having 10% methanol and 5% glacial acetic acid, respectively, and then analyzed with Odyssey infrared fluorescence scanning system (LI-COR Biosciences, Lincoln, Nebr.). […]

[2] = system: inflammatory cell (macrophage and leukocyte) in adventitia; assay: Immunofluorescent staining of inflammatory cells (Mac3, CD45), angiotensin II model; details: AngII ApoE-/- mice; naringenin gavage vs water; FIG. 7A
Source text: CD45 and Mac3 were results of immunofluorescent staining on […].

[3] = system: aortic aneurysms in angiotensin II induced ApoE knockout mice; assay: Formed aortic aneurysms, ApoE knockout mice, second round of angiotensin II submerging pump with naringenin gavage
Method: In addition, we used the method of angiotensin II subcutaneous submerging pump for 28 days (1,000 ng/kg/min), to induce abdominal aortic aneurysms on 20 weeks of male ApoE knockout mice (totally 40 mice) and used ultrasound to detect the diameters of the abdominal aortas. The diameter greater than 50% of diameter of adjacent blood vessel was used as a standard of the onset of an aortic aneurysm, and 28 mice suffered from aortic aneurysms 28 days later.
Angiotensin II submerging pump was continuously given to all the mice for 28 days. […] In the mice which had suffered from aortic aneurysms previously, 4 mice in the 14 mice by water gavage died from fracture of aortic aneurysms, the other 10 survived mice all suffered from serious aortic aneurysms (the average diameter reaches 3.00±0.58 mm).

O=C1C[C@@H](c2ccc(O)cc2)Oc2cc(O)cc(O)c21 [naringenin]
infiltration of macrophages and leukocytes in adventitia in vascular walls [1]: reduce such effect
activity of matrix metalloproteinase (in situ zymography) (matrix metalloproteinase): reduce the activity of matrix metalloproteinase induced by CaPO4 daubing
MMP-2 and NMP-9 (gelatin zymography) (MMP-2 and NMP-9): reverse the increase of MMP-2 and NMP-9 caused by CaPO4 daubing
infiltration of inflammatory cell (macrophage and leukocyte) in adventitia [2]: significantly reduce
survival after the second round of angiotensin II ([3]; ApoE knockout mice with previously formed aneurysms, 14 mice, naringenin gavage, 4 of 14 died in water group): all normally survived
maximum diameter of the blood vessels (abdominal aorta, ultrasound) ([3]; ApoE knockout mice with previously formed aneurysms, naringenin gavage, second AngII round, water group 3.00±0.58): 1.62±0.45 mm
number of mice in which aortic aneurysms were observed ([3]; ApoE knockout mice with previously formed aneurysms, of 14 mice, naringenin gavage, second AngII round 28 days): 5
incidence rate of aortic aneurysms ([3]; ApoE knockout mice without aneurysm after first AngII round, 6 mice, second AngII round 28 days with naringenin gavage, control 50%): 16%
